Measurements: US4116950A, “Analogs of human β-endorphin” (Hoffmann-La Roche Inc., priority 1978, dated 1978)

Key:
[1] = tested on: guinea pig ileum; test: Opiate activity by guinea pig ileum assay (in vitro); assay type: cell-based; conditions: for relative potency: calculated using the IC50 of βh-endorphin as 100%; for IC50: guinea pig ileum assay
Excerpt: (§1) In vitro assay of opiate activity was by the guinea pig ileum method of Kosterlitz et al, Brit. J. Pharmacol. 39, 398 (1970) and in vivo assay in mice was by the tail-flick method of D'Amour and Smith, J. Pharmacol. Exp. Therap. 72, 74 (1941). The experimental procedure and method of calculation has been outlined by Loh et al., Proc. Natl. Acad. Sci. 73, 2895 (1976) and Tseng et al., Nature 263, 239 (1976).

[2] = tested on: mice; test: Analgesic potency in mice by tail-flick method (in vivo); conditions: for AD50: mice, tail-flick; for relative potency: molar basis, AD50 of βh-endorphin as 100%
Excerpt: as §1

Row | Substance | relative potency [1] [%] | IC50 [1] [nM] | AD50 ([2]; intracerebroventricular) | relative potency ([2]; intracerebroventricular) [%] | AD50 ([2]; intravenous) | relative potency ([2]; intravenous) [%] | duration of analgesic activity ([2]; after iv injection compared with icv injection) | in vivo analgesic activity compared with βh-endorphin ([2]; mouse, iv or icv, in words)
1 | βh -endorphin [reference compound] | 100 | 45 | 0.11(0.07-0.17) μg/mouse | 100 | 11.4(6.4-19.6) mg/kg | 100 |  | 
2 | [Ala^6,7, Phe^27, Gly^31 ] - βh -EP (YGGFMAAEKSQTPLVTLFKNAIIKNAFKKGG; Beta-endorphin; UniProt P01189 237-267, looked up, variant T6A S7A Y27F E31G) [Peptide II, analog of human β-endorphin substituted with Ala at 6 and 7, Phe at 27, Gly at 31] | 118 | 38 | 0.46(0.28-0.77) μg/mouse | 23 | 22.1(14.3-34.3) mg/kg | 49 |  | 
3 | [Phe^27, Gly^31 ] - βh -EP (YGGFMTSEKSQTPLVTLFKNAIIKNAFKKGG; Beta-endorphin; UniProt P01189 237-267, looked up, variant Y27F E31G) [Peptide I, analog of human β-endorphin substituted with Phe at 27 and Gly at 31] | 128 | 35 | 0.09(0.08-0.11) μg/mouse | 119 | 7.5(3.4-16.5) mg/kg | 148 | shorter than after icv injection | greater in vivo analgesic activity than the natural peptide
4 | [D-Thr^2, Phe^27, Gly^31 ] - βh EP [Peptide IV] | 136 | 33 | 0.52(0.24-1.16) μg/mouse | 21 | ca. 32.0 mg/kg | 32 |  | 
5 | [Nle^5, Phe^27, Gly^31 ] - βh -EP [Peptide III] | 118 | 38 | 0.31(0.14-0.72) μg/mouse | 35 | ca. 17.0 mg/kg | 65 |  | 
